One assay deals with T1, ALK2 (Mus musculus, UniProt P37172).
T1 construct: endogenous in cells; host or cells: C2C12-BRE (BRE-Luc reporter line, G418 selection)
T1 sequence (P37172 21-509): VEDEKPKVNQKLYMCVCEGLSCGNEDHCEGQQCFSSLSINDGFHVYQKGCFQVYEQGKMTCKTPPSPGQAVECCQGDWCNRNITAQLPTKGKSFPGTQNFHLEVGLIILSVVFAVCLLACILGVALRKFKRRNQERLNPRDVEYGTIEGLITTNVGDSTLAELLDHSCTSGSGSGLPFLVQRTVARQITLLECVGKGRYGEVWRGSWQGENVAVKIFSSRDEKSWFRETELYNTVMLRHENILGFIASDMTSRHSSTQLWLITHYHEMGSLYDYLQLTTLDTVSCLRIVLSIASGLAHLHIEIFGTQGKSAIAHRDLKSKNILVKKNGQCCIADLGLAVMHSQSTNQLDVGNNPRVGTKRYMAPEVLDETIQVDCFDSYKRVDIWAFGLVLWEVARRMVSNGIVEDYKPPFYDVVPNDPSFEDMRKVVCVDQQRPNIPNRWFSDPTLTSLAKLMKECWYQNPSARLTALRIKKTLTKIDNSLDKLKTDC
The experiment in a line: Luciferase reporter gene assay for ALK2 activity (C2C12 BRE-Luc SMAD1/5/8 reporter, BMP6 agonist). Type of assay: cell-based. To be noted: BMP6 50 ng/mL. Here is the method:
(§1) All cell lines were cultured in DMEM, supplemented with […] and 1% Pen/Strep. All media reagents were obtained from Gibco. BMP6, BMP9, and TGFβ were obtained from R&D Systems. C2C12-BRE and HEK293T-SBE were kept in selection with 400 ug/mL G418 from Invivogen.
(§2) In this reporter gene cell based ALK2 and TGFβ assay, the C2C12 cell line was employed for the measurement of ALK2 activity, using a BRE-Luc SMAD1/5/8 reporter and BMP6 as the agonist. The HEK293T cell line was employed to measure TGFβ activity, using a SBE-Luc SMAD2/3 reporter and TGFβ as the agonist. Luciferase reporter assays were read using Promega Steady-Glo Luciferase Assay System.
(§3) Cells were plated in 96 well white clear bottom assay plates at 10 k cells/well for C2C12-BRE, 15 k cells/well for HEK293-SBE in DMEM containing 2% FBS 1% P/S. Cells were given a minimum of 4 hours in incubator at 37° C./5% CO2 to adhere prior to further treatment. Compounds were diluted in DMSO to a 10-point dilution curve and added to the plate to reach the following final concentrations: 10000, 3000, 1000, 300, 100, and 30 nM in the HEK293-SBE assay and 1000, 300, 100, 30, 10, 3, 1, 0.3 nM in the C2C12-BRE assay. Negative and positive control wells received 2 μL DMSO as vehicle treatment. Plates were returned to incubator for 45 minutes and then BMP6 and TGFB were added to a final concentration of 50 ng/mL and 5 ng/mL, respectively. Plates were returned to the incubator and left overnight. After a minimum of 18 hours post BMP6/TGFβ addition, the plates were read using Promega Steady-Glo Luciferase Assay System. A 1:1 mixture of prepared steady-glo and phenol free DMEM was prepared, and 50 μL/well was added to the assay plates whose media had been flicked off. Plates were given 10 minutes post steady-glo addition before luminescence was read on a Spectramax M5e microplate reader. Negative control wells were averaged and subtracted from all other wells on the plate. Inhibition was calculated as the percent of signal loss compared to the averaged positive control wells.

A further assay relates to TGFβ. Description: Luciferase reporter gene assay for TGFβ activity (HEK293T SBE-Luc SMAD2/3 reporter, TGFβ agonist). Type of assay: cell-based. The following applies: Homo sapiens, HEK-293T, TGFβ 5 ng/mL. Here is the method:
as §1, §2, §3
(In general: A reporter such as luciferase makes a cellular process visible.)

Broadly, the IC50 is the midpoint of a concentration-inhibition curve. As to `NC(=O)c1ccc(-c2cnn3cc(N4CCN(C5CCNCC5)CC4)cnc23)c2ccccc12` [Compound 3], the IC50 was 13 nM at ALK2 and less than 1 nM in the assay on TGFβ.
The corresponding values for `NC(=O)c1cccc2c(-c3cnn4cc(N5CCN(C6CCNCC6)CC5)cnc34)cccc12` [Compound 4] are greater than 3000 nM and greater than 3000 nM.
`CN1CCN(C2CCN(c3cnc4c(-c5ccc(C(N)=O)c6ccccc56)cnn4c3)CC2)CC1` [Compound 9]: the IC50 on ALK2 is 36 nM; in the assay with TGFβ, 23 nM.
As for `CN1CCN(C2CCN(c3cnc4c(-c5cccc6c(C(N)=O)cccc56)cnn4c3)CC2)CC1` [Compound 10], the figures for the IC50 on ALK2 and with TGFβ were 41 nM and 76 nM, respectively.
The corresponding values for `NC(=O)c1ccc(-c2cnn3cc(N4CCC(N5CCOCC5)CC4)cnc23)c2ccccc12` [Compound 12] are 87 nM and 458 nM.
`NC(=O)c1cccc2c(-c3cnn4cc(N5CCC(N6CCOCC6)CC5)cnc34)cccc12` [Compound 13]: the concentration for half-maximal inhibition (IC50) on ALK2 came out at 56 nM; in the assay with TGFβ, 261 nM.
The corresponding values for `CN1CCN(C2CCN(c3cnc4c(-c5cn[nH]c5)cnn4c3)CC2)CC1` [Compound 14] are 186 nM and greater than 3000 nM.
Regarding `COc1cc2c(-c3cnn4cc(N5CCC(N6CCOCC6)CC5)cnc34)ccnc2cc1F` [Compound 16], the IC50 was found to be 8 nM on ALK2 and 20 nM with TGFβ.
The corresponding values for `COc1cc2nccc(-c3cnn4cc(N5CCC(N6CCN(C)CC6)CC5)cnc34)c2cc1OC` [Compound 17] are 681 nM and 271 nM.
The corresponding values for `CN1CCN(C2CCN(c3cnc4c(-c5ccnc6cc7c(cc56)OCO7)cnn4c3)CC2)CC1` [Compound 18] are 29 nM and 176 nM.
The corresponding values for `Cc1cc(-c2cnn3cc(N4CCN(CCN5CCOCC5)CC4)cnc23)c2ccccc2n1` [Compound 19] are 113 nM and 64 nM.
In the case of `COc1ccc2nccc(-c3cnn4cc(N5CCC(N6CCN(C)CC6)CC5)cnc34)c2c1` [Compound 20], the figures for the half-inhibitory concentration (IC50) on ALK2 and in the assay with TGFβ were 8 nM and 218 nM, respectively.
With `CCOc1ccc2nccc(-c3cnn4cc(N5CCC(N6CCN(C)CC6)CC5)cnc34)c2c1` [Compound 21], the IC50 is 27 nM at ALK2 and 1280 nM with TGFβ.
As for `Cc1cc(-c2cnn3cc(N4CCN(C5CCOCC5)CC4)cnc23)c2ccccc2n1` [Compound 22], the values for the IC50 on ALK2 and with TGFβ were 261 nM and 86 nM, respectively.
The corresponding values for `Cc1cc(-c2cnn3cc(N4CCN(C5CCNCC5)CC4)cnc23)c2ccccc2n1` [Compound 23] are 145 nM and 88 nM.
Turning to `CC(=O)N1CCC(N2CCN(c3cnc4c(-c5cc(C)nc6ccccc56)cnn4c3)CC2)CC1` [Compound 24], the IC50 at ALK2 was determined as 223 nM; in the assay on TGFβ, 56 nM.
On to `CN1CCN(C2CCN(c3cnc4c(-c5cnn6ccccc56)cnn4c3)CC2)CC1` [Compound 26], for which the IC50 at ALK2 was found to be 334 nM; in the assay with TGFβ, 118 nM.
The corresponding values for `Cc1cc(-c2cnn3cc(N4CCN(c5ccncc5)CC4)cnc23)c2ccccc2n1` [Compound 27] are 7 nM and 10 nM.
The corresponding values for `COc1cc2c(-c3cnn4cc(N5CCC(N6CCN(C)CC6)CC5)cnc34)ccnc2cc1Cl` [Compound 28] are 72 nM and 248 nM.
The corresponding values for `COc1cc2c(-c3cnn4cc(N5CCC(N6CCN(C)CC6)CC5)cnc34)ccnc2cc1C` [Compound 29] are 83 nM and 384 nM.
Take `COc1ccc2nccc(-c3cnn4cc(N5CCC(N6CCOCC6)CC5)cnc34)c2c1` [Compound 30]: the IC50 turned out to be 37 nM on ALK2 and 120 nM with TGFβ.
`Cn1cc(-c2cnn3cc(N4CCC(N5CCOCC5)CC4)cnc23)c2ccccc2c1=O` [Compound 32]: the IC50 on ALK2 turned out to be 25 nM; with TGFβ it was 37 nM.
With `Cc1cc(-c2cnn3cc(N4CCN(C5(C)CCNCC5)CC4)cnc23)c2ccccc2n1` [Compound 33], the IC50 on ALK2 is 94 nM; in the assay on TGFβ, 37 nM.
The corresponding values for `COc1cc2c(-c3cnn4cc(N5CCC(N6CCNCC6)CC5)cnc34)ccnc2cc1F` [Compound 39, 7-fluoro-6-methoxy-4-[6-(4-piperazin-1-yl-1-piperidyl)pyrazolo[1,5-a]pyrimidin-3-yl]quinoline] are 11 nM and 69 nM.
The corresponding values for `CCN1CCN(C2CCN(c3cnc4c(-c5ccnc6cc(F)c(OC)cc56)cnn4c3)CC2)CC1` [Compound 40] are 114 nM and 327 nM.
The corresponding values for `COc1cc2c(-c3cnn4cc(N5CCC(N6CCN(C)C(C)C6)CC5)cnc34)ccnc2cc1F` (stereo not shown) [Compound 41] are 236 nM and 1230 nM.
For the compound `COc1cc2c(-c3cnn4cc(N5CCC(N6CCCN(C)CC6)CC5)cnc34)ccnc2cc1F` [Compound 42], the IC50 on ALK2 turned out to be 9 nM; with TGFβ it was 59 nM.
With `COc1cc2c(-c3cnn4cc(N5CCC(N6CC[N+](C)([O-])CC6)CC5)cnc34)ccnc2cc1F` [Compound 43], the IC50 on ALK2 amounted to 631 nM; in the assay with TGFβ it was 1920 nM.
As for `COc1cc2c(-c3cnn4cc(N5CCC(N6CC[N+](C)(C)CC6)CC5)cnc34)ccnc2cc1F` [Compound 44], the IC50 at ALK2 was greater than 3000 nM; in the assay with TGFβ, 210 nM.
Regarding `[2H]C([2H])([2H])N1CCN(C2CCN(c3cnc4c(-c5ccnc6cc(F)c(OC)cc56)cnn4c3)CC2)CC1` [Compound 45], the IC50 is 24 nM on ALK2 and 376 nM in the assay with TGFβ.
In the case of `COc1cc2c(-c3cnn4cc(N5CCC(N6CCS(=O)(=O)CC6)CC5)cnc34)ccnc2cc1F` [Compound 46], the IC50 is 108 nM at ALK2 and 454 nM in the assay with TGFβ.
The corresponding values for `COc1cc2c(-c3cnn4cc(N5CCC(N6CCN(C)CC6)C(F)C5)cnc34)ccnc2cc1F` (stereo not shown) [Compound 47] are 76 nM and 483 nM.
In the case of `COc1cc2c(-c3cnn4cc(N5CCC(N6CCN(C)CC6)C5)cnc34)ccnc2cc1F` (stereo not shown) [Compound 48], the results for the IC50 at ALK2 and with TGFβ were 50 nM and 914 nM, respectively.
With `COc1cc2c(-c3cnn4cc(N5CC(N6CCN(C)CC6)C5)cnc34)ccnc2cc1F` [Compound 49], the concentration for half-maximal inhibition (IC50) at ALK2 is 11 nM; with TGFβ it was 631 nM.
The corresponding values for `COc1cc2c(-c3cnn4cc(N5CCC(N6CCC(C)(N)CC6)CC5)cnc34)ccnc2cc1F` [Compound 51] are 60 nM and 410 nM.
In the case of `COc1cc2c(-c3cnn4cc(N5CCC(N6CC7CCC(C6)N7)CC5)cnc34)ccnc2cc1F` [Compound 52], the values for the IC50 at ALK2 and in the assay with TGFβ were 29 nM and 358 nM, respectively.
The corresponding values for `COc1cc2c(-c3cnn4cc(N5CCC(N6CC7CCC(C6)N7C)CC5)cnc34)ccnc2cc1F` [Compound 53] are 9 nM and 198 nM.
The corresponding values for `COc1cc2c(-c3cnn4cc(N5CCC(N6C[C@H]7C[C@@H]6CN7)CC5)cnc34)ccnc2cc1F` [Compound 54] are 71 nM and 539 nM.
As to `COc1cc2c(-c3cnn4cc(N5CCC(N6C[C@H]7C[C@@H]6CN7C)CC5)cnc34)ccnc2cc1F` [Compound 55], the IC50 at ALK2 came out at 9 nM; in the assay with TGFβ, 268 nM.
The corresponding values for `COc1cc2c(-c3cnn4cc(N5CCC(C)(N6CCN(C)CC6)CC5)cnc34)ccnc2cc1F` [Compound 57] are 207 nM and greater than 1000 nM.
Consider `COc1cc2c(-c3cnn4cc(N5CCC(N6CCN(C)CC6C)CC5)cnc34)ccnc2cc1F` (stereo not shown) [Compound 58, 4-[6-[4-(2,4-dimethylpiperazin-1-yl)-1-piperidyl]pyrazolo[1,5-a]pyrimidin-3-yl]-7-fluoro-6-methoxy-quinoline], for which the half-inhibitory concentration (IC50) on ALK2 amounted to 377 nM; in the assay on TGFβ, 970 nM.

The record behind these values is patent US20230000869A1, “NOVEL ALK2 INHIBITORS AND METHODS FOR INHIBITING BMP SIGNALING” (The Brigham and Women's Hospital, Inc., priority 2017, published 2023).
